Reference: patent US20170354148A1, “SAFENED HERBICIDAL COMPOSITIONS CONTAINING HALAUXIFEN AND METHODS OF USE THEREOF IN BRASSICA SPECIES” (Dow AgroSciences LLC, priority 2016, published 2017)
Where “and” joins values, the source holds several entries; their conditions need not be identical. Equal entries are not always repeated.

Tested on: Spring Argentine canola (Brassica napus, BRSNS)
Assay: Example 3 field trials (Canada), postemergence crop safety, visual phytotoxicity

COC(=O)c1nc(-c2ccc(Cl)c(OC)c2F)cc(N)c1Cl [Halauxifen-methyl, methyl 4-amino-3-chloro-6-(4-chloro-2-fluoro-3-methoxyphenyl)-2-pyridineccarboxylate]
Mean % Visual Injury (BRSNS, trial 8, 57DAA1, 0.62 g ae/ha): 4.8%
Mean % Visual Injury (BRSNS, trial 9, 27DAA1, 5 g ae/ha): 6.8%
Mean % Visual Injury (BRSNS, trial 9, 60DAA1, 10 g ae/ha): 22.5% and 12.5%
Mean % Visual Injury (Table 14, 7DAAA, halauxifen-methyl 5, quinclorac 101 g ae/ha, alone or mixed): 0.8%
Mean % Visual Injury (Table 14, 15DAAA, halauxifen-methyl 5, quinclorac 101 g ae/ha, alone or mixed): 50.5%
Mean % Visual Injury (Table 14, 27DAAA, halauxifen-methyl 5, quinclorac 101 g ae/ha, alone or mixed): 48.5%
Mean % Visual Injury (Table 14, 57DAAA, halauxifen-methyl 5, quinclorac 101 g ae/ha, alone or mixed): 30.3%
Mean % Visual Injury (Table 15, 7DAAA, halauxifen-methyl 5, clopyralid-olamine 150, quinclorac 101 g ae/ha, alone or mixed): 0.8%
Mean % Visual Injury (Table 15, 15DAAA, halauxifen-methyl 5, clopyralid-olamine 150, quinclorac 101 g ae/ha, alone or mixed): 50.5%
Mean % Visual Injury (Table 15, 27DAAA, halauxifen-methyl 5, clopyralid-olamine 150, quinclorac 101 g ae/ha, alone or mixed): 48.5%
Mean % Visual Injury (Table 15, 57DAAA, halauxifen-methyl 5, clopyralid-olamine 150, quinclorac 101 g ae/ha, alone or mixed): 30.3%
Mean % Visual Injury (Table 16, 7DAAA, halauxifen-methyl 5 g ae/ha, alone or plus isoxadifen-ethyl 5 g ae/ha): 0.8%
Mean % Visual Injury (Table 16, 15DAAA, halauxifen-methyl 5 g ae/ha, alone or plus isoxadifen-ethyl 5 g ae/ha): 50.5%
Mean % Visual Injury (Table 16, 27DAAA, halauxifen-methyl 5 g ae/ha, alone or plus isoxadifen-ethyl 5 g ae/ha): 48.5%
Mean % Visual Injury (Table 16, 57DAAA, halauxifen-methyl 5 g ae/ha, alone or plus isoxadifen-ethyl 5 g ae/ha): 30.3%
Mean % Visual Injury (Table 17, 7DAAA, halauxifen-methyl 5, clopyralid-olamine 150 g ae/ha alone, or both mixed with isoxadifen-ethyl 5 g ae/ha): 0.8%
Mean % Visual Injury (Table 17, 15DAAA, halauxifen-methyl 5, clopyralid-olamine 150 g ae/ha alone, or both mixed with isoxadifen-ethyl 5 g ae/ha): 50.5%
Mean % Visual Injury (Table 17, 27DAAA, halauxifen-methyl 5, clopyralid-olamine 150 g ae/ha alone, or both mixed with isoxadifen-ethyl 5 g ae/ha): 48.5%
Mean % Visual Injury (Table 17, 57DAAA, halauxifen-methyl 5, clopyralid-olamine 150 g ae/ha alone, or both mixed with isoxadifen-ethyl 5 g ae/ha): 30.3%
Mean % Visual Injury (Table 18, 8DAAA, halauxifen-methyl 5, clopyralid-olamine 150 g ae/ha, alone or mixed): 10%
Mean % Visual Injury (Table 18, 14DAAA, halauxifen-methyl 5, clopyralid-olamine 150 g ae/ha, alone or mixed): 24%
Mean % Visual Injury (Table 18, 40DAAA, halauxifen-methyl 5, clopyralid-olamine 150 g ae/ha, alone or mixed): 7%
Mean % Visual Injury (Table 18, 81DAAA, halauxifen-methyl 5, clopyralid-olamine 150 g ae/ha, alone or mixed): 6%
Mean % Visual Injury (Table 19, 8DAAA, halauxifen-methyl 5, clopyralid-olamine 150 g ae/ha alone, or both mixed with isoxadifen-ethyl 20 g ae/ha): 10%
Mean % Visual Injury (Table 19, 14DAAA, halauxifen-methyl 5, clopyralid-olamine 150 g ae/ha alone, or both mixed with isoxadifen-ethyl 20 g ae/ha): 24%
Mean % Visual Injury (Table 19, 40DAAA, halauxifen-methyl 5, clopyralid-olamine 150 g ae/ha alone, or both mixed with isoxadifen-ethyl 20 g ae/ha): 7%
Mean % Visual Injury (Table 19, 81DAAA, halauxifen-methyl 5, clopyralid-olamine 150 g ae/ha alone, or both mixed with isoxadifen-ethyl 20 g ae/ha): 6%
Mean % Visual Injury (Table 21, 8DAAA, halauxifen-methyl 5, quinclorac 101 g ae/ha, alone or mixed): 10%
Mean % Visual Injury (Table 21, 14DAAA, halauxifen-methyl 5, quinclorac 101 g ae/ha, alone or mixed): 24%
Mean % Visual Injury (Table 21, 40DAAA, halauxifen-methyl 5, quinclorac 101 g ae/ha, alone or mixed): 7%
Mean % Visual Injury (Table 21, 81DAAA, halauxifen-methyl 5, quinclorac 101 g ae/ha, alone or mixed): 6%
Mean % Visual Injury (Table 22, 8DAAA, halauxifen-methyl 5, clopyralid-olamine 150, quinclorac 101 g ae/ha, alone or mixed): 10%
Mean % Visual Injury (Table 22, 14DAAA, halauxifen-methyl 5, clopyralid-olamine 150, quinclorac 101 g ae/ha, alone or mixed): 24%
Mean % Visual Injury (Table 22, 40DAAA, halauxifen-methyl 5, clopyralid-olamine 150, quinclorac 101 g ae/ha, alone or mixed): 7%
Mean % Visual Injury (Table 22, 81DAAA, halauxifen-methyl 5, clopyralid-olamine 150, quinclorac 101 g ae/ha, alone or mixed): 6%
Mean % Visual Injury (Table 23, 7DAAA, halauxifen-methyl 5, clopyralid-olamine 150 g ae/ha, alone or mixed): 2.5%
Mean % Visual Injury (Table 23, 17DAAA, halauxifen-methyl 5, clopyralid-olamine 150 g ae/ha, alone or mixed): 3.0%
Mean % Visual Injury (Table 23, 49DAAA, halauxifen-methyl 5, clopyralid-olamine 150 g ae/ha, alone or mixed): 2.5%
Mean % Visual Injury (Table 24, 7DAAA, halauxifen-methyl 5, clopyralid-olamine 150 g ae/ha alone, or both mixed with isoxadifen-ethyl 20 g ae/ha): 2.5%
Mean % Visual Injury (Table 24, 17DAAA, halauxifen-methyl 5, clopyralid-olamine 150 g ae/ha alone, or both mixed with isoxadifen-ethyl 20 g ae/ha): 3.0%
Mean % Visual Growth Inhibition (Trial 1, 16DAA1, halauxifen-methyl 2.5, clopyralid-olamine 150 g ae/ha, alone or mixed): 1.5%
Mean % Visual Growth Inhibition (Trial 1, 30DAA1, halauxifen-methyl 2.5, clopyralid-olamine 150 g ae/ha, alone or mixed): 3.3%
Mean % Visual Growth Inhibition (Trial 1, 58DAA1, halauxifen-methyl 2.5, clopyralid-olamine 150 g ae/ha, alone or mixed): 1.0%
Mean % Visual Growth Inhibition (Trial 2, 32DAA1, halauxifen-methyl 0.62, clopyralid-olamine 150 g ae/ha, alone or mixed): 1.0%
Mean % Visual Growth Inhibition (Trial 2, 32DAA1, halauxifen-methyl 1.25, clopyralid-olamine 150 g ae/ha, alone or mixed): 3.8%
Mean % Visual Growth Inhibition (Trial 2, 32DAA1, halauxifen-methyl 2.5, clopyralid-olamine 150 g ae/ha, alone or mixed): 8.0%
Mean % Visual Growth Inhibition (Trial 2, 49DAA1, halauxifen-methyl 0.62, clopyralid-olamine 150 g ae/ha, alone or mixed): 0.3%
Mean % Visual Growth Inhibition (Trial 2, 49DAA1, halauxifen-methyl 1.25, clopyralid-olamine 150 g ae/ha, alone or mixed): 2.3%
Mean % Visual Growth Inhibition (Trial 2, 49DAA1, halauxifen-methyl 2.5, clopyralid-olamine 150 g ae/ha, alone or mixed): 2.5%
Mean % Visual Growth Inhibition (Trial 3, 8DAA1, halauxifen-methyl 5, clopyralid-olamine 150 g ae/ha, alone or mixed, line r23): 2.5%
Mean % Visual Growth Inhibition (Trial 3, 8DAA1, halauxifen-methyl 5, clopyralid-olamine 150 g ae/ha, alone or mixed, line r25): 1.5%
Mean % Visual Growth Inhibition (Trial 3, 8DAA1, halauxifen-methyl 10, clopyralid-olamine 150 g ae/ha, alone or mixed, line r22): 3.3%
Mean % Visual Growth Inhibition (Trial 3, 8DAA1, halauxifen-methyl 10, clopyralid-olamine 150 g ae/ha, alone or mixed, line r24): 2.3%
Mean % Visual Growth Inhibition (Trial 3, 17DAA1, halauxifen-methyl 5, clopyralid-olamine 150 g ae/ha, alone or mixed, line r27): 1.3%
Mean % Visual Growth Inhibition (Trial 3, 17DAA1, halauxifen-methyl 5, clopyralid-olamine 150 g ae/ha, alone or mixed, line r29): 1.5%
Mean % Visual Growth Inhibition (Trial 3, 17DAA1, halauxifen-methyl 10, clopyralid-olamine 150 g ae/ha, alone or mixed, line r26): 29.5%
Mean % Visual Growth Inhibition (Trial 3, 17DAA1, halauxifen-methyl 10, clopyralid-olamine 150 g ae/ha, alone or mixed, line r28): 2.8%
Mean % Visual Growth Inhibition (Trial 3, 35DAA1, halauxifen-methyl 10, clopyralid-olamine 150 g ae/ha, alone or mixed): 0.8%
Mean % Visual Growth Inhibition (Trial 3, 48DAA1, halauxifen-methyl 5, clopyralid-olamine 150 g ae/ha, alone or mixed, line r31): 1.8%
Mean % Visual Growth Inhibition (Trial 3, 48DAA1, halauxifen-methyl 5, clopyralid-olamine 150 g ae/ha, alone or mixed, line r32): 1.5%
Mean % Visual Growth Inhibition (Trial 4, 13DAA1, halauxifen-methyl 10, clopyralid-olamine 150 g ae/ha, alone or mixed, line r33): 57.5%
Mean % Visual Growth Inhibition (Trial 4, 13DAA1, halauxifen-methyl 10, clopyralid-olamine 150 g ae/ha, alone or mixed, line r34): 31.3%
Mean % Visual Growth Inhibition (Trial 5, 7DAA1, halauxifen-methyl 0.62, clopyralid-olamine 150 g ae/ha, alone or mixed): 1.0%
Mean % Visual Growth Inhibition (Trial 5, 7DAA1, halauxifen-methyl 1.25, clopyralid-olamine 150 g ae/ha, alone or mixed): 1.5%
Mean % Visual Growth Inhibition (Trial 5, 7DAA1, halauxifen-methyl 2.5, clopyralid-olamine 150 g ae/ha, alone or mixed): 1.5%
Mean % Visual Growth Inhibition (Trial 5, 7DAA1, halauxifen-methyl 5, clopyralid-olamine 150 g ae/ha, alone or mixed): 2.0%
Mean % Visual Growth Inhibition (Trial 6, 33DAA1, halauxifen-methyl 5, clopyralid-olamine 150 g ae/ha, alone or mixed): 4.5%
Mean % Visual Growth Inhibition (Trial 7, 8DAA1, halauxifen-methyl 5, clopyralid-olamine 150 g ae/ha, alone or mixed): 8.0%
Mean % Visual Growth Inhibition (Trial 7, 15DAA1, halauxifen-methyl 0.62, clopyralid-olamine 150 g ae/ha, alone or mixed): 2.5%
Mean % Visual Growth Inhibition (Trial 7, 15DAA1, halauxifen-methyl 5, clopyralid-olamine 150 g ae/ha, alone or mixed): 15.5%
Mean % Visual Growth Inhibition (Trial 8, 7DAA1, halauxifen-methyl 5, clopyralid-olamine 150 g ae/ha, alone or mixed): 7.5%
Mean % Visual Growth Inhibition (Trial 8, 7DAA1, halauxifen-methyl 10, clopyralid-olamine 150 g ae/ha, alone or mixed, line r44): 9.0%
Mean % Visual Growth Inhibition (Trial 8, 7DAA1, halauxifen-methyl 10, clopyralid-olamine 150 g ae/ha, alone or mixed, line r45): 3.5%
Mean % Visual Growth Inhibition (Trial 8, 7DAA1, halauxifen-methyl 10, clopyralid-olamine 150 g ae/ha, alone or mixed, line r46): 2.0%
Mean % Visual Growth Inhibition (Trial 8, 7DAA1, halauxifen-methyl 10, clopyralid-olamine 150 g ae/ha, alone or mixed, line r47): 1.5%
Mean % Visual Growth Inhibition (Trial 8, 15DAA1, halauxifen-methyl 5, clopyralid-olamine 150 g ae/ha, alone or mixed): 20.0%
Mean % Visual Growth Inhibition (Trial 8, 15DAA1, halauxifen-methyl 10, clopyralid-olamine 150 g ae/ha, alone or mixed, line r49): 6.0%
Mean % Visual Growth Inhibition (Trial 8, 15DAA1, halauxifen-methyl 10, clopyralid-olamine 150 g ae/ha, alone or mixed, line r50): 2.0%
Mean % Visual Growth Inhibition (Trial 9, 23DAA1, halauxifen-methyl 2.5, clopyralid-olamine 150 g ae/ha, alone or mixed): 35.0%
Mean % Visual Growth Inhibition (Trial 9, 23DAA1, halauxifen-methyl 5, clopyralid-olamine 150 g ae/ha, alone or mixed): 50.0%
Mean % Visual Growth Inhibition (Trial 9, 33DAA1, halauxifen-methyl 5, clopyralid-olamine 150 g ae/ha, alone or mixed): 25.0%
Mean % Visual Growth Inhibition (Trial 9, 59DAA1, halauxifen-methyl 5, clopyralid-olamine 150 g ae/ha, alone or mixed): 6.3%
Mean % Visual Growth Inhibition (Trial 10, 17DAA1, halauxifen-methyl 5, clopyralid-olamine 100 g ae/ha, alone or mixed): 46.7%
Mean % Visual Growth Inhibition (Trial 10, 17DAA1, halauxifen-methyl 5, clopyralid-olamine 150 g ae/ha, alone or mixed): 46.7%
Mean % Visual Growth Inhibition (Trial 10, 17DAA1, halauxifen-methyl 5, clopyralid-olamine 200 g ae/ha, alone or mixed): 46.7%
Mean % Visual Growth Inhibition (Trial 10, 27DAA1, halauxifen-methyl 5, clopyralid-olamine 150 g ae/ha, alone or mixed): 16.7%
Mean % Visual Growth Inhibition (Trial 10, 27DAA1, halauxifen-methyl 5, clopyralid-olamine 200 g ae/ha, alone or mixed): 16.7%
Mean % Visual Growth Inhibition (Trial 11, 7DAA1, halauxifen-methyl 5, clopyralid-olamine 150 g ae/ha, alone or mixed): 1.3%
Mean % Visual Growth Inhibition (Trial 11, 15DAA1, halauxifen-methyl 0.62, clopyralid-olamine 150 g ae/ha, alone or mixed): 2.0%
Mean % Visual Growth Inhibition (Trial 11, 15DAA1, halauxifen-methyl 1.25, clopyralid-olamine 150 g ae/ha, alone or mixed): 6.5%
Mean % Visual Growth Inhibition (Trial 12, 15DAA1, halauxifen-methyl 10, clopyralid-olamine 150 g ae/ha, alone or mixed): 25.0%
Mean % Visual Growth Inhibition (Trial 12, 27DAA1, halauxifen-methyl 5, clopyralid-olamine 150 g ae/ha, alone or mixed): 5.8%
